Measurements reported in article PMC6896446, “Design, synthesis and molecular modelling studies of some pyrazole derivatives as carbonic anhydrase inhibitors” (Journal of Enzyme Inhibition and Medicinal Chemistry, 2019).
Where two headings read alike, the source gives them in different places.

Key:
hCA II = molecular target: T1, hCA II (Homo sapiens, UniProt P00918); assay: hCA II inhibition, esterase activity method (4-nitrophenylacetate); type: biochemical
T1 construct: The hCA I and II isoenzymes used here were purified from human blood as previously described; from tissue; host or cells: human blood

hCA I = molecular target: T2, hCA I (Homo sapiens, UniProt P00915); assay: hCA I inhibition, esterase activity method (4-nitrophenylacetate); type: biochemical; conditions: for IC50: against hCA I
T2 construct: The hCA I and II isoenzymes used here were purified from human blood as previously described; from tissue; host or cells: human blood
T2 sequence (P00915 whole entry): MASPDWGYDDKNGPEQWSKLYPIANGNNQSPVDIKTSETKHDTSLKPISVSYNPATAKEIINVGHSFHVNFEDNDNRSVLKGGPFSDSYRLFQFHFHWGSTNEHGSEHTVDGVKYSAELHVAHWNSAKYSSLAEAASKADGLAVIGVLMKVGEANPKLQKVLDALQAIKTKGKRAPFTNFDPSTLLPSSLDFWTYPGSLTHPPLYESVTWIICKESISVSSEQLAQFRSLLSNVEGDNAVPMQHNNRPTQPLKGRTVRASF

[1] = esterase method, 4-nitrophenylacetate, pH 7.4, 25 °C, mean from at least three determinations, read-out: Ki hCA II
[2] = esterase method, 4-nitrophenylacetate, pH 7.4, 25 °C, mean from at least three determinations, read-out: Ki hCA I

Compound | Ki (hCA II; [1]) [nM] | Ki (hCA I; [2]) [nM] | further results
COc1ccc(C2CC(c3ccc(N)cc3)=NN2C(N)=S)cc1OC (stereo not drawn) [Compound 9, 3-(4-Aminophenyl)-5-(3,4-dimethoxyphenyl)-4,5-dihydro-1H-pyrazole-1-carbothioamide] | 20.4 | – | Ki (hCA I): 5.13 nM
COc1cc(/C=C/C(=O)c2ccc(C)cc2)cc(OC)c1OC [Compound 3, (E)-1-p-tolyl-3-(3,4,5-trimethoxyphenyl)prop-2-en-1-one] | 67.4 | 16.9 | –
CN(C)c1ccc(/C=C/C(=O)c2ccc(O)cc2)cc1 [Compound 5, (E)-3-(4-(dimethylamino)phenyl)-1-(4-hydroxyphenyl)prop-2-en-1-one] | – | – | Ki (hCA II): 11.8 nM; Ki (hCA I): 8.28 nM
COc1cc(/C=C/C(=O)c2ccc(Br)cc2)cc(OC)c1OC [Compound 2, (E)-1-(4-bromophenyl)-3-(3,4,5-trimethoxyphenyl)prop-2-en-1-one] | 17.1 | 8.03 | –
COc1cc(C2CC(c3ccc(Br)cc3)=NN2C(N)=S)cc(OC)c1OC (stereo not drawn) [Compound 7, 3-(4-Bromophenyl)-5-(3,4,5-trimethoxyphenyl)-4,5-dihydro-1H-pyrazole-1-carbothioamide] | – | 12.6 | –
COc1cc(C2CC(c3ccc(N)cc3)=NN2C(N)=S)cc(OC)c1OC (stereo not drawn) [Compound 6, 3-(4-Aminophenyl)-5-(3,4,5-trimethoxyphenyl)-4,5-dihydro-1H-pyrazole-1-carbothioamide] | – | 12.2 | IC50 (hCA I): 23.9 to 24.4 nM
CN(C)c1ccc(C2CC(c3ccc(O)cc3)=NN2C(N)=S)cc1 (stereo not drawn) [Compound 10, 5-(4-(Dimethylamino)phenyl)-3-(4-hydroxyphenyl)-4,5-dihydro-1H-pyrazole-1-carbothioamide] | 41.3 | 11.9 | melting point: 180 to 182 °C; IC50 (hCA I): 23.9 to 24.4 nM; selectivity ratio (SR) hCA I versus hCA II (hCA I; hCA I versus hCA II): 3.46
COc1cc(/C=C/C(=O)c2ccc(N)cc2)cc(OC)c1OC [Compound 1, (E)-1-(4-aminophenyl)-3-(3,4,5-trimethoxyphenyl)prop-2-en-1-one] | – | – | Ki (hCA II): 33.8 nM
COc1ccc(/C=C/C(=O)c2ccc(N)cc2)cc1OC [Compound 4, (E)-1-(4-aminophenyl)-3-(3,4-dimethoxyphenyl)prop-2-en-1-one] | 21.5 | 9.71 | –
COc1cc(C2CC(c3ccc(C)cc3)=NN2C(N)=S)cc(OC)c1OC (stereo not drawn) [Compound 8, 3-p-Tolyl-5-(3,4,5-trimethoxyphenyl)-4,5-dihydro-1H-pyrazole-1-carbothioamide] | 26.1 | 11 | –
